Results as given in patent US20230131192A1, “1H-PYRAZOLO[4,3-d]PYRIMIDINE COMPOUNDS AS TOLL-LIKE RECEPTOR 7 (TLR7) AGONISTS” (BRISTOL-MYERS SQUIBB COMPANY, priority 2020, published 2023).

Tests used:
human TLR7 = biological target: T1, human TLR7 (Homo sapiens, UniProt Q9NYK1); assay: Human TLR7 agonist (reporter) activity assay, HEK-Blue TLR7 cells, SEAP reporter; type: cell-based; details: 18 h treatment, average where assay was performed multiple times, read-out: hTLR7 Agonism EC50
T1 construct: host or cells: HEK-Blue TLR7 cells (engineered human embryonic kidney cells)
T1 sequence (Q9NYK1 27-1049): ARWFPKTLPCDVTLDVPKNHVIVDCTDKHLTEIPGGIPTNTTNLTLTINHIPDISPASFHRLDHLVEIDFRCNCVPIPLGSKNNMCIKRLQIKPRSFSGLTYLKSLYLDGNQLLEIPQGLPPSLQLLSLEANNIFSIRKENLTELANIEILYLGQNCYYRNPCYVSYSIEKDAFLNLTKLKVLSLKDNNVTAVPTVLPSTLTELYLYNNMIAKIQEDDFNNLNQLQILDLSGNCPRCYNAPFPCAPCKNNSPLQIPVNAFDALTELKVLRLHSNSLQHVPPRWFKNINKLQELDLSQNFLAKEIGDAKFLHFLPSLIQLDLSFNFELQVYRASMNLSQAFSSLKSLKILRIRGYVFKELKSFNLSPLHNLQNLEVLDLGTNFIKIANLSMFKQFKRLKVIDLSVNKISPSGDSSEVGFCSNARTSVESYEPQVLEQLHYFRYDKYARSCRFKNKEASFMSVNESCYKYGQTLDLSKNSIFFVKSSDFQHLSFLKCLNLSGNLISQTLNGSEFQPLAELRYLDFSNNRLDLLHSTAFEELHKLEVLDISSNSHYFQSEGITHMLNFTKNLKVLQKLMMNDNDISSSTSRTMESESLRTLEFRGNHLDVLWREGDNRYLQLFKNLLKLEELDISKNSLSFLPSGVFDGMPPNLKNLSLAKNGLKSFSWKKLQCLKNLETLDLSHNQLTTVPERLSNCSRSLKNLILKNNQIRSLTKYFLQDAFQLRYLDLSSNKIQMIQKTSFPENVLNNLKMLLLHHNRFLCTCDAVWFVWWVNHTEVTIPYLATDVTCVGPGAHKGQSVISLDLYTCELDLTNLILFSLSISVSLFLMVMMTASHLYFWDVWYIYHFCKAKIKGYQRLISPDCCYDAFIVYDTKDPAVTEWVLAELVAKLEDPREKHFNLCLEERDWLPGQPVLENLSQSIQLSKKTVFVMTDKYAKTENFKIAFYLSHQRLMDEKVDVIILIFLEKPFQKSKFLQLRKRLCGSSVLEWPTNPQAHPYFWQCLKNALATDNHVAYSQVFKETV
Protocol: This procedure describes a method for assaying human TLR7 (hTLR7) agonist activity of the compounds disclosed in this specification.
HEK-Blue™ TLR7 cells were added to each well of a 384-well tissue-culture plate (15,000 cells per well) and incubated 16-18 h at 37° C., 5% CO2. Compounds (100 nl) were dispensed into wells containing the HEK-Blue™ TLR cells and the treated cells were incubated at 37° C., 5% CO2. After 18 h treatment ten microliters of freshly-prepared Quanti-Blue™ reagent (Invivogen) was added to each well, incubated for 30 min (37° C., 5% CO2) and SEAP levels measured using an Envision plate reader (OD=620 nm). The half maximal effective concentration values (EC50; compound concentration which induced a response halfway between the assay baseline and maximum) were calculated.

CD69 = assay: Induction of CD69 in human whole blood; type: cell-based; details: 17 hrs, CD69 surface staining, 100% set to 1 uM of resiquimod, average where assay was performed multiple times, read-out: hWB CD69 EC50
Protocol: The induction of Type I interferon (IFN) MX-1 genes and the B-cell activation marker CD69 are downstream events that occur upon activation of the TLR7 pathway. The following is a human whole blood assay that measures their induction in response to a TLR7 agonist.
Heparinized human whole blood was harvested from human subjects and treated with test TLR7 agonist compounds at 1 mM. The blood was diluted with RPMI 1640 media and Echo was used to predot 10 nL per well giving a final concentration of 1 uM (10 nL in 10 uL of blood). After mixing on a shaker for 30 sec, the plates were covered and placed in a 37° C. chamber for o/n=17 hrs. Fixing/lysis buffer was prepared (5×→1× in H2O, warm at 37° C.; Cat # BD 558049) and kept the perm buffer (on ice) for later use.
For surface markers staining (CD69): prepared surface Abs: 0.045 ul hCD14-FITC (ThermoFisher Cat # MHCD1401)+0.6 ul hCD19-ef450 (ThermoFisher Cat #48-0198-42)+1.5 ul hCD69-PE (cat # BD555531)+0.855 ul FACS buffer. Added 3 ul/well, spin1000 rpm for 1 min and mixed on shaker for 30 sec, put on ice for 30 mins. Stop stimulation after 30 minutes with 70 uL of prewarmed 1× fix/lysis buffer and use Feliex mate to resuspend (15 times, change tips for each plate) and incubate at 37 C for 10 minutes.
Centrifuge at 2000 rpm for 5 minutes aspirate with HCS plate washer, mix on shaker for 30 sec and then wash with 70 uL in dPBS and pelleted 2×s (2000 rpm for 5 min) and 50 ul wash in FACS buffer pelleted 1×s(2000 rpm for 5 min). Mix on shaker for 30 sec. For Intracellular markers staining (MX-1): Add 50 ul of BD Perm buffer III and mix on shaker for 30 sec. Incubate on ice for 30 minutes (in the dark). Wash with 50 uL of FACS buffer 2× (spin @2300 rpm×5 min after perm) followed by mixing on shaker for 30 sec. Resuspended in 20 ul of FACS buffer containing MX1 antibody ( )(4812)-Alexa 647: Novus Biologicals #NBP2-43704AF647) 20 ul FACS bf+0.8 ul hlgG+0.04 ul MX-1. Spin 1000 rpm for 1 min, mix on shaker for 30se and the samples were incubated at RT in the dark for 45 minutes followed by washing 2×FACS buffer (spin @2300 rpm×5 min after perm). Resuspend 20 ul (35 uL total per well) of FACS buffer and cover with foil and place in 4° C. to read the following day. Plates were read on iQuePlus. The results were loaded into toolset and […] curves are generated in curve master. The y-axis 100% is set to 1 uM of resiquimod.

SMILES	EC50 (human TLR7) [nM]	EC50 (CD69) [nM]
COc1cc(CNC2CCOCC2)ccc1Cn1ncc2nc(N)nc(N[C@H](CO)CC3CC3)c21 [Compound 108, (2S)-2-({5-amino-1-[(2-methoxy-4-{[(oxan-4-yl)amino]methyl}phenyl)methyl]-1H-pyrazolo[4,3-d]pyrimidin-7-yl}amino)-3-cyclopropylpropan-1-ol]	342	119
COc1cc(CNC2CCOCC2)ccc1Cn1ncc2nc(N)nc(NCC[C@H](O)C3CC3)c21 [Compound 109A, (1S)-3-({5-amino-1-[(2-methoxy-4-{[(oxan-4-yl)amino]methyl}phenyl)methyl]-1H-pyrazolo[4,3-d]pyrimidin-7-yl}amino)-1-cyclopropylpropan-1-ol]	338	75.4
COc1cc(CNC2CCOCC2)ccc1Cn1ncc2nc(N)nc(NCC[C@@H](O)C3CC3)c21 [Compound 109b, (1R)-3-({5-amino-1-[(2-methoxy-4-{[(oxan-4-yl)amino]methyl}phenyl)methyl]-1H-pyrazolo[4,3-d]pyrimidin-7-yl}amino)-1-cyclopropylpropan-1-ol]	1330	163
COc1cc(CN2CCN(S(C)(=O)=O)CC2)ccc1Cn1ncc2nc(N)nc(NCc3cc(C)on3)c21 [Compound 110, 1-({4-[(4-methanesulfonylpiperazin-1-yl)methyl]-2-methoxyphenyl}methyl)-N7-[(5-methyl-1,2-oxazol-3-yl)methyl]-1H-pyrazolo[4,3-d]pyrimidine-5,7-diamine]	485	438
COc1cc(CN2CCC(S(C)(=O)=O)CC2)ccc1Cn1ncc2nc(N)nc(NCc3cc(C)on3)c21 [Compound 111]	176	58.8
COc1cc(CNC2CCOCC2)ccc1Cn1nc(C)c2nc(N)nc(NCc3cc(C)on3)c21 [Compound 112, 1-[(2-methoxy-4-{[(oxan-4-yl)amino]methyl}phenyl)methyl]-3-methyl-N7-[(5-methyl-1,2-oxazol-3-yl)methyl]-1H-pyrazolo[4,3-d]pyrimidine-5,7-diamine]	95.9	10.3
COc1cc(CN2CCN(C)CC2)ccc1Cn1nc(C)c2nc(N)nc(NCc3cc(C)on3)c21 [Compound 113, 1-({2-methoxy-4-[(4-methylpipeazin-1-yl)methyl]phenyl}methyl)-3-methyl-N7-[(5-methyl-1,2-oxazol-3-yl)methyl]-1H-pyrazolo[4,3-d]pyrimidine-5,7-diamine]	100	40.5
COc1cc(CNC2CCOCC2)ccc1Cn1ncc2nc(N)nc(NCc3noc(C)n3)c21 [Compound 114, 1-[(2-methoxy-4-{[(oxan-4-yl)amino]methyl}phenyl)methyl]-N7-[(5-methyl-1,2,4-oxadiazol-3-yl)methyl]-1H-pyrazolo[4,3-d]pyrimidine-5,7-diamine]	79.1	19.6
COc1cc(CN2CCN(C)CC2)ccc1Cn1ncc2nc(N)nc(NCc3noc(C)n3)c21 [Compound 115, 1-({2-methoxy-4-[(4-methylpiperazin-1-yl)methyl]phenyl}methyl)-N7-[(5-methyl-1,2,4-oxadiazol-3-yl)methyl]-1H-pyrazolo[4,3-d]pyrimidine-5,7-diamine]	67.2	15.5
COc1cc(CN2CCN(CCO)CC2)ccc1Cn1ncc2nc(N)nc(NCc3noc(C)n3)c21 [Compound 117, 2-[4-({4-[(5-amino-7-{[(5-methyl-1,2,4-oxadiazol-3-yl)methyl]amino}-1H-pyrazolo[4,3-d]pyrimidin-1-yl)methyl]-3-methoxyphenyl}methyl)piperazin-1-yl]ethan-1-ol]	18.6	1.4
COc1cc(CN2CC(OC)C2)ccc1Cn1ncc2nc(N)nc(NCc3noc(C)n3)c21 [Compound 118, 1-({2-methoxy-4-[(3-methoxyazetidin-1-yl)methyl]phenyl}methyl)-N7-[(5-methyl-1,2,4-oxadiazol-3-yl)methyl]-1H-pyrazolo[4,3-d]pyrimidine-5,7-diamine]	47.9	4.3
COc1cc(CN2CCC(S(C)(=O)=O)CC2)ccc1Cn1ncc2nc(N)nc(NCc3noc(C)n3)c21 [Compound 119, 1-({4-[(4-methanesulfonylpiperidin-1-yl)methyl]-2-methoxyphenyl}methyl)-N7-[(5-methyl-1,2,4-oxadiazol-3-yl)methyl]-1H-pyrazolo[4,3-d]pyrimidine-5,7-diamine]	298	34.7
COc1cc(CN2CCN(S(C)(=O)=O)CC2)ccc1Cn1ncc2nc(N)nc(NCc3noc(C)n3)c21 [Compound 120, 1-({4-[(4-methanesulfonylpiperazin-1-yl)methyl]-2-methoxyphenyl}methyl)-N7-[(5-methyl-1,2,4-oxadiazol-3-yl)methyl]-1H-pyrazolo[4,3-d]pyrimidine-5,7-diamine]	345	299
COc1cc(CN2CCS(=O)(=O)CC2)ccc1Cn1ncc2nc(N)nc(NCc3noc(C)n3)c21 [Compound 121, 4-({4-[(5-amino-7-{[(5-methyl-1,2,4-oxadiazol-3-yl)methyl]amino}-1H-pyrazolo[4,3-d]pyrimidin-1-yl)methyl]-3-methoxyphenyl}methyl)-1λ^6-thiomorpholine-1,1-dione]	656	289
COc1cc(CNC2CN(S(C)(=O)=O)C2)ccc1Cn1ncc2nc(N)nc(NCc3noc(C)n3)c21 [Compound 122, 1-[(4-{[(1-methanesulfonylazetidin-3-yl)amino]methyl}-2-methoxyphenyl)methyl]-N7-[(5-methyl-1,2,4-oxadiazol-3-yl)methyl]-1H-pyrazolo[4,3-d]pyrimidine-5,7-diamine]	570	221
COc1cc(CNC2CCN(S(C)(=O)=O)CC2)ccc1Cn1ncc2nc(N)nc(NCc3noc(C)n3)c21 [Compound 123, 1-[(4-{[(1-methanesulfonylpiperidin-4-yl)amino]methyl}-2-methoxyphenyl)methyl]-N7-[(5-methyl-1,2,4-oxadiazol-3-yl)methyl]-1H-pyrazolo[4,3-d]pyrimidine-5,7-diamine]	196	18.2
